From patent US9573887B2, “Naphthalene derivative” (Daito Chemix Corporation, priority 2010, dated 2017)
Where a name gives a salt, the structure may show the parent alone.

biological target: T1, Mouse VCP (Mus musculus, UniProt Q01853); assay: ATPase activity of purified His-tagged VCP, [γ-32P]ATP, liberated phosphate by liquid scintillation; assay type: biochemical; settings: compounds of Comparative Examples; determined in the same manner as the Examples
T1 construct: histidine tag (N); made in house; host or cells: Sf-9 insect cells (baculovirus vector pVL1392)
T1 sequence (Q01853 whole entry): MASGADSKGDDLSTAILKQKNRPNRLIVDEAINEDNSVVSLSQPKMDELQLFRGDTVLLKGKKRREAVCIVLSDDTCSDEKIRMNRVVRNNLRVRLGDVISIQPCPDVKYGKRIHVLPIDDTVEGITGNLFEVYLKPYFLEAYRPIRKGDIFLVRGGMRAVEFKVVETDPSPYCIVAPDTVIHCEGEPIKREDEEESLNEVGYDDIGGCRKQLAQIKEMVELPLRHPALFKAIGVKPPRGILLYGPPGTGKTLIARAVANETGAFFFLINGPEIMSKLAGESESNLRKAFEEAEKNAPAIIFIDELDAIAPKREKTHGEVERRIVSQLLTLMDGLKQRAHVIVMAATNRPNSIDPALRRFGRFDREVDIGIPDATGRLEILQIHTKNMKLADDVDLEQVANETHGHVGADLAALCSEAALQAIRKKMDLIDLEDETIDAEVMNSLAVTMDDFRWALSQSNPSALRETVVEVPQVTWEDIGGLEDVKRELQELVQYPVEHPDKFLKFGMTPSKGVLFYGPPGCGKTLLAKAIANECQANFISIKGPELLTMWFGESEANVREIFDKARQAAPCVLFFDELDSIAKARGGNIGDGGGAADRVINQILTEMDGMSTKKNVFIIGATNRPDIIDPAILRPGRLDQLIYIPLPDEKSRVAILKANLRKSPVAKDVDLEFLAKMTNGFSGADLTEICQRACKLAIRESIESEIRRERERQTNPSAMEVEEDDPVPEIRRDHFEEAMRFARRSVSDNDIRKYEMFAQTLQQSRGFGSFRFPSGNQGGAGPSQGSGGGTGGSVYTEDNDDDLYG
Description: In one aspect, the effect of VCP regulators for regulating ATPase activity is determined, for example by the following exemplary assay. Mouse VCP cDNA (the amino acid sequence is completely identical among mouse, rat and human) is added with a DNA sequence corresponding to a histidine tag at the amino-terminal, subcloned into a baculovirus vector pVL1392 (BD Bioscience), and expressed in Sf-9 insect cells. The protein is purified with a nickel column. After the purification the concentration of the protein is adjusted to 0.25-0.5 μg/ml and the protein is stored in a solution containing 50 mM TrisCl pH 8.0, 5 mM EDTA, 10% glycerol, and 15 mM DTT at 4° C. 500 ng of the purified VCP is mixed with 100 μM [γ-^32P]ATP (18.5 GBq/mmol) and the test substance in 20 μL of ATPase buffer (20 mM HEPES (pH7.4), 50 mM KCl, 5 mM MgCl2, 15 mM DTT), and incubated at 37° C. for 10 minutes. The enzyme reaction is stopped with addition of 200 μL of an ice-cold solution containing 7% TCA and 1 mM K2HPO4. 50μ of a solution containing 3.75% ammonium molybdate and 0.02M tungstate silicic/3 N H2SO4 is added, followed by 300 μL of n-butylacetic acid, and then the liberated phosphate is extracted into the organic layer. The reaction tube is centrifuged for 5 minutes at 20,000 g to separate the aqueous layer and the organic layer, 200 μL of the organic layer is taken, and the beta ray radiated from the liberated phosphate is quantified with liquid scintillation counter. By measuring the ATPase activity in the presence of the test substance at various concentrations, ATPase inhibitory activity of the test substance is measured.
Mouse VCP cDNA was added with a DNA sequence corresponding to histidine tag at the amino-terminal, subcloned into a baculovirus vector pVL1392 (BD Bioscience), and expressed in Sf-9 insect cells. The protein was purified with a nickel column (GE Healthcare). The concentration of the protein was adjusted to 0.25-0.5 μg/ml and the protein was stored in a solution containing 50 mM TrisCl pH 8.0, 5 mM EDTA, 10% glycerol, and 15 mM DTT.
The ATPase activity was determined as follows. 500 ng of the purified VCP was mixed with 100 μM [γ-32P]ATP (18.5 GBq/mmol) and the test substance in 20 μL of ATPase buffer (20 mM HEPES (pH7.4), 50 mM KCl, 5 mM MgCl2, 15 mM DTT), and incubated at 37° C. for 10 minutes.
The enzyme reaction was stopped with addition of 200 μL of an ice-cold solution containing 7% TCA and 1 mM K2HPO4. 50μ of a solution containing 3.75% ammonium molybdate and 0.02M tungstate silicic/3 NH2SO4 was added, followed by 300 μL of n-butylacetic acid, and then the liberated phosphate was extracted into the organic layer. The reaction tube was centrifuged for 5 minutes at 20,000 g to separate the aqueous layer and the organic layer, 200 μL of the organic layer was taken, and the beta ray radiated from the liberated phosphate was quantified with liquid scintillation counter.
By measuring the ATPase activity in the presence of the test substance at various concentrations, ATPase inhibitory activity of the test substance was measured. IC50 of the each test substance was calculated by applying the measured values to the equation below using GraphPad Prism (GraphPad Software).

IC50 | SMILES
> 10000 nM | N#Cc1cc(/N=N/c2ccc(-c3ccccc3)nc2)c(N)c2ccccc12 [Example 12, sodium salt]

same assay, conditions: compounds of Examples; ATPase inhibitory activity; 500 ng VCP, 100 μM ATP, 37° C., 10 minutes

IC50 | SMILES
1150 nM | Cc1cc(-c2cccnc2)ncc1/N=N/c1cc(S(=O)(=O)O)c2ccccc2c1N [Example 53, 4-amino-3-(4-methyl-[2,3′]bipyridinyl-5-ylazo)naphthalene-1-sulfonic acid sodium salt]
99 nM | Nc1c(/N=N/c2c(Br)cc(Br)cc2Br)cc(S(=O)(=O)O)c2ccccc12 [Example 114, 4-amino-3-(2,4,6-tribromophenylazo)naphthalene-1-sulfonic acid sodium salt]
737 nM | Nc1c(/N=N/c2ccc(F)cc2Cl)cc(S(=O)(=O)O)c2ccccc12 [Example 119, 4-amino-3-(2-chloro-4-fluorophenylazo)naphthalene-1-sulfonic acid sodium salt]
1110 nM | Nc1c(/N=N/c2ccccc2F)cc(S(=O)(=O)O)c2ccccc12 [Example 94, 4-amino-3-(2-fluorophenylazo)naphthalene-1-sulfonic acid sodium salt]
516 nM | Nc1c(/N=N/c2cccc(OCc3cccnc3)c2)cc(S(=O)(=O)O)c2ccccc12 [Example 138, 4-amino-3-[3-(pyridine-3-ylmethoxy)phenylazo]naphthalene-1-sulfonic acid sodium salt]
610 nM | Nc1c(/N=N/c2cccc(OCc3ccccn3)c2)cc(S(=O)(=O)O)c2ccccc12 [Example 137, 4-amino-3-[3-(pyridine-2-ylmethoxy)phenylazo]naphthalene-1-sulfonic acid sodium salt]
1760 nM | Nc1c(/N=N/c2cccc(F)c2)cc(S(=O)(=O)O)c2ccccc12 [Example 101, 4-amino-3-(3-fluorophenylazo)naphthalene-1-sulfonic acid sodium salt]
501 nM | Nc1c(/N=N/c2cnc(-c3ccccc3)c(-c3ccccc3)c2)cc(S(=O)(=O)O)c2ccccc12 [Example 89, 4-amino-3-(5,6-diphenylpyridine-3-ylazo)naphthalene-1-sulfonic acid sodium salt]
348 nM | Nc1c(/N=N/c2cnc(Cl)c(-c3ccccc3)c2)cc(S(=O)(=O)O)c2ccccc12 [Example 88, 4-amino-3-(6-chloro-5-phenylpyridine-3-ylazo)naphthalene-1-sulfonic acid sodium salt]
230 nM | Nc1c(/N=N/c2ccc(Cl)cc2Br)cc(S(=O)(=O)O)c2ccccc12 [Example 117, 4-amino-3-(2-bromo-4-chlorophenylazo)naphthalene-1-sulfonic acid sodium salt]
327 nM | CSc1ccc(/N=N/c2cc(S(=O)(=O)O)c3ccccc3c2N)cc1 [Example 134, 4-amino-3-(4-methylsulfanylphenylazo)naphthalene-1-sulfonic acid sodium salt]
289 nM | Nc1c(/N=N/c2ccc(-c3c(OCCCO)ccc4c3sc3ccccc34)nc2)cc(S(=O)(=O)O)c2ccccc12 [Example 82, 4-amino-3-{6-[3-(3-hydroxypropoxy)dibenzothiophene-4-yl]pyridine-3-ylazo}naphthalene-1-sulfonic acid sodium salt]
288 nM | Nc1c(/N=N/c2ccccc2Br)cc(S(=O)(=O)O)c2ccccc12 [Example 108, 4-amino-3-(2-bromophenylazo)naphthalene-1-sulfonic acid sodium salt]
295 nM | Nc1c(/N=N/c2ccc(-c3cncc4ccccc34)cc2)cc(S(=O)(=O)O)c2ccccc12 [Example 127, sodium salt]
4010 nM | Nc1c(/N=N/c2ccc(C(=O)Nc3ccc(CC(C(=O)O)C(=O)O)cc3)cc2)cc(S(=O)(=O)O)c2ccccc12 [Example 124, 2-{4-[4-(1-amino-4-sulfonaphthalene-2-ylazo)benzoylamino]benzyl}malonic acid trisodium salt]
849 nM | Cc1ccc(/N=N/c2cc(S(=O)(=O)O)c3ccccc3c2N)cc1 [Example 122, 4-amino-3-p-tolylazonaphthalene-1-sulfonic acid sodium salt]

The remaining lines, values behind:

SMILES | IC50
Nc1c(/N=N/c2cccnc2)cc(S(=O)(=O)O)c2ccccc12 [Example 1, 4-amino-3-(pyridine-3-ylazo)naphthalene-1-sulfonic acid sodium salt] | 1580 nM
Nc1c(/N=N/c2ccc(-c3ccc(C(F)(F)F)cc3)nc2)cc(S(=O)(=O)O)c2ccccc12 [Example 21, 4-amino-3-[6-(4-trifluoromethylphenyl)pyridine-3-ylazo]naphthalene-1-sulfonic acid sodium salt] | 445 nM
Nc1c(/N=N/c2ccc(-c3cccc4c3oc3ccccc34)nc2)cc(S(=O)(=O)O)c2ccccc12 [Example 39, 4-amino-3-(6-dibenzofuran-4-ylpyridine-3-ylazo)naphthalene-1-sulfonic acid sodium salt] | 754 nM
Nc1c(/N=N/c2ccc(OCC(F)(F)F)nc2)cc(S(=O)(=O)O)c2ccccc12 [Example 5, 4-amino-3-[6-(2,2,2-trifluoroethoxy)pyridine-3-ylazo]naphthalene-1-sulfonic acid sodium salt] | 495 nM
Cc1ccc(-c2cccc(Cl)c2)c(-c2ccc(/N=N/c3cc(S(=O)(=O)O)c4ccccc4c3N)cn2)c1 [Example 75, 4-amino-3-[6-(3′-chloro-4-methylbiphenyl-2-yl)pyridine-3-ylazo]naphthalene-1-sulfonic acid sodium salt] | 924 nM
Nc1c(/N=N/c2ccc(-c3ccccc3Cl)nc2)cc(S(=O)(=O)O)c2ccccc12 [Example 22, 4-amino-3-[6-(2-chlorophenyl)pyridine-3-ylazo]naphthalene-1-sulfonic acid sodium salt] | 197 nM
Nc1c(/N=N/c2ccc(-c3cc(Cl)ccc3O)nc2)cc(S(=O)(=O)O)c2ccccc12 [Example 70, 4-amino-3-[6-(5-chloro-2-hydroxyphenyl)pyridine-3-ylazo]naphthalene-1-sulfonic acid sodium salt] | 712 nM
Nc1c(/N=N/c2ccc(-c3ccc(Cl)cc3Cl)nc2)cc(S(=O)(=O)O)c2ccccc12 [Example 19, 4-amino-3-[6-(2,4-dichlorophenyl)pyridine-3-ylazo]naphthalene-1-sulfonic acid sodium salt] | 178 nM
CC(C)(C)OC(=O)NCCCOc1ccccc1-c1ccc(/N=N/c2cc(S(=O)(=O)O)c3ccccc3c2N)cn1 [Example 68, 4-amino-3-{6-[2-(3-tert-butoxycarbonylaminopropoxy)phenyl]pyridine-3-ylazo}naphthalene-1-sulfonic acid sodium salt] | 201 nM
Nc1c(/N=N/c2ccc(/C=C/c3ccccc3)nc2)cc(S(=O)(=O)O)c2ccccc12 [Example 30, 4-amino-3-(6-styrylpyridine-3-ylazo)naphthalenesulfonic acid sodium salt] | 1140 nM
CC(C)Oc1ccc(-c2ccc(/N=N/c3cc(S(=O)(=O)O)c4ccccc4c3N)cn2)cc1 [Example 28, 4-amino-3-[6-(4-isopropoxyphenyl)pyridine-3-ylazo]naphthalene-1-sulfonic acid sodium salt] | 416 nM
Nc1c(/N=N/c2ccc(-c3csc4ccccc34)nc2)cc(S(=O)(=O)O)c2ccccc12 [Example 41, 4-amino-3-(6-benzo[b]thiophene-3-ylpyridine-3-ylazo)naphthalene-1-sulfonic acid sodium salt] | 210 nM
Cc1ccc(-c2ccccc2)c(-c2ccc(/N=N/c3cc(S(=O)(=O)O)c4ccccc4c3N)cn2)c1 [Example 71, 4-amino-3-[6-(4-methylbiphenyl-2-yl)pyridine-3-ylazo]naphthalene-1-sulfonic acid sodium salt] | 257 nM
Nc1c(/N=N/c2ccc(-c3ccccc3)nc2)cc(S(=O)(=O)O)c2ccccc12 [Example 7, 4-amino-3-(6-phenylpyridine-3-ylazo)naphthalene-1-sulfonic acid sodium salt] | 229 nM
